The results in this text go back to PMC11219871, “Epigenetic-based differentiation therapy for Acute Myeloid Leukemia” (Nature Communications, 2024).

One series concerns MOLM-13. As to the kind of experiment: Differentiation-apoptosis assay, CD11b / annexin-V / Sytox Green / myeloid markers flow cytometry. It is filed as cell-based, human. Set-up: Cell viability (%): concentration or dose not given beside the values; CD11b levels: unit not given here. The following applies: for differentiation level (CD11b): MOLM-13, after 6–8 days of treatment; for CD11b levels: MOLM-13, daily treatment for 48 h, replicates 1-3 (Suppl. Fig. 9A). As for the experimental part: (§1) Next, the cells were washed twice with phosphate-buffered saline (PBS) and resuspended in 1X Binding Buffer at a concentration of 1 × 10^6 cells/mL. An 8-µL aliquot of APC-CD11b (BD Pharmingen, Franklin Lakes, NJ, USA) and 1 µL of FITC annexin-V (AV) (BD Pharmingen, Franklin Lakes, NJ, USA) antibodies were added and incubated for 15 min at room temperature in the dark. Finally, after the addition of 400 µL of 1X Binding Buffer to each tube, samples were collected on a BD FACSCanto flow cytometer (Becton Dickinson, San Jose, CA, USA) and analyzed using FlowJo software.
(§2) For the rest of experiments, the mix of antibodies (2 µL of BV786-CD13, Cat No, 744748 BD; 1 µL of diluted 1:10 antibody of PB-HLADR, Cat No 307633, Biolegend; 5 µL of APCH7-CD14, Cat No 641394, BD) was added to 10 µL of Brilliant Stain Buffer Plus (Becton Dickinson, San Jose, CA, USA). Then, 1 million cells (volume of 250 µL) were added and incubated for 30 min at room temperature in darkness. After 10 min incubation at room temperature with 2 mL of FACSLysing 1X, cells were centrifuged at 540 g for 5 min and washed twice with FACSBuffer. Finally, after centrifugation at 540 g for 5 min cells were resuspended in FACSBuffer.

For another series, the system named is MV4-11. The description is as above. The format is cell-based, human. The following applies: for differentiation level (CD11b): MV4-11, after 6–8 days of treatment; for CD11b levels: MV4-11, daily treatment for 48 h, replicates 1-3 (Suppl. Fig. 9A). Further details: Cell viability (%): concentration or dose not given beside the values; CD11b levels: unit not given here. As for the experimental part:
as §1, §2

A further series concerns NB-4. As to the kind of experiment: Differentiation assay, CD11b / annexin-V flow cytometry. It is filed as cell-based. Conditions: for CD11b (%): NB4 cell line, replicates 1-3 (Figure 2A). The method in brief:
(§3)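 Dual staining: APC-CD11b marks myeloid differentiation, FITC annexin-V marks apoptotic cells; 15 min incubation, room temperature, dark, then flow cytometry.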

In the next series the test system is MONO-MAC-6. Described as above. Conditions: MONOMAC-6 cell line; replicates 1-3 (Figure 2A). It is filed as cell-based. The gist of the method:
as §3

The test system of the next series is GF-D8. The series is described as above. The format is cell-based. The following applies: GF-D8 cell line; replicates 1-3 (Figure 2A). The gist of the method:
as §3

The next series deals with OCI-AML3. The description is as above. The format is cell-based. Conditions: OCI-AML-3 cell line; replicates 1-3 (Figure 2A). The method in brief: as §3
Another series has as its system THP-1. The description is as above. It is filed as cell-based. The following applies: THP-1 cell line; replicates 1-3 (Figure 2A). The method in brief:
as §3

The test system of the next series is TF-1. The description is as above. It is filed as cell-based. Conditions: TF-1 cell line; replicates 1-3 (Figure 2A). The method in brief:
as §3

[1] abbreviates: MOLM-13, 48 h treatment, replicates 1-3 (Suppl. Fig. 5A).
Where [2] appears, read: MOLM-13, daily treatment, time 0 days.
The mark [3] stands for this setting: MOLM-13, daily treatment, time 2 days.
[4] abbreviates: MOLM-13, daily treatment, time 4 days.
[5] abbreviates: MOLM-13, daily treatment, time 6 days.
The mark [6] stands for this setting: MOLM-13, daily treatment, time 8 days.
The mark [7] stands for this setting: MOLM-13 cell line, replicates 1-3 (Figure 2A).
The mark [8] stands for this setting: MV4-11, 48 h treatment, replicates 1-3 (Suppl. Fig. 5A).
[9] abbreviates: MV4-11, daily treatment, time 0 days.
The mark [10] stands for this setting: MV4-11, daily treatment, time 2 days.
Setting [11] is: MV4-11, daily treatment, time 4 days.
The mark [12] stands for this setting: MV4-11, daily treatment, time 6 days.
Setting [13] is: MV4-11 cell line, replicates 1-3 (Figure 2A).

Molecules are shown by their SMILES. Values joined by “and” are separate entries in the source; they are usually repeats but may differ in a detail not shown here. Identical values can stand only once.

Regarding `COc1cc2nc(-c3cc(C)oc3C)cc(NCC3CCN(c4ncc(C(=O)NO)cn4)CC3)c2cc1OC` [CM-1758, 2-[4-[[[2-(2,5-dimethyl-3-furyl)-6,7-dimethoxy-4-quinolyl]amino]methyl] -1-piperidyl]pyrimidine-5-carbohydroxamic acid], the “CD11b (%)” value in the series with MOLM-13 (MOLM-13, 48 h) is 93.0%; in the series on MOLM-13 (setting [1]), 93.5% and 87.6% and 86.0%; in the series with MOLM-13 (setting [2]), 6.62% and 4.5% and 6.9%; in the series on MOLM-13 (setting [3]) it was 73% and 68.5% and 65.7%; with MOLM-13 (setting [4]), 83.3% and 80.2% and 78.3%; in the series on MOLM-13 (setting [5]) it was 89.9% and 85.1% and 83.1%. The “CD11b (%)” value in the series with MOLM-13 (setting [6]) was 91.9% and 90.1% and 92.4%; in the series on MOLM-13 (setting [7]), 70.54% and 69.2% and 63%; in the series with MV4-11 (MV4-11, 48 h) it was 57.9%; with MV4-11 (setting [8]), 47.1% and 53.2% and 55.4%; with MV4-11 (setting [9]) it was 11.1% and 6.62% and 5.25%; with MV4-11 (setting [10]), 28.2% and 20.4% and 30.4%. Further, the “CD11b (%)” value in the series with MV4-11 (setting [11]) is 44.3% and 46.2% and 46.6%; in the series with MV4-11 (setting [12]), 76% and 75.1% and 74.8%; in the series on MV4-11 (setting [13]), 38.46% and 40.4% and 45.7%; with NB-4, 41.82% and 48.2% and 36.4%; in the series with MONO-MAC-6 it was 61.3% and 69.1% and 60.1%; in the series on GF-D8, 27.3% and 20% and 28.6%. For the same compound, the “CD11b (%)” value is 51.4% and 49.5% and 45.2% with OCI-AML3; 90.5% and 96.2% and 93.2% in the series on THP-1; 72.3% (2×) and 76.2% with TF-1. Further, the “CD13 (%)” value in the series with MOLM-13 (MOLM-13, 48 h) is given as 54.8%; with MV4-11 (MV4-11, 48 h) it was 98.1%. Further, the “CD14 (%)” value is listed as 35.6% with MOLM-13 (MOLM-13, 48 h) and 56.2% with MV4-11 (MV4-11, 48 h). Moreover, the “HLA-DR (%)” value in the series with MOLM-13 (MOLM-13, 48 h) is given as 27.9%; with MV4-11 (MV4-11, 48 h), 38.4%. The “Cell viability (%)” value with MOLM-13 (setting [1]) was 71.1% and 73.4% and 72.7%; in the series on MV4-11 (setting [8]), 80.4% and 85.9% and 86.75%. Further, the “differentiation level (CD11b)” value with MOLM-13 and in the series on MV4-11 was approximately 90% each time. The CD11b levels was 61.5 and 58.4 and 65.3 in the series on MOLM-13; 37.8 and 40.7 and 46.2 with MV4-11. The “Annexin-V (%)” value in the series on MOLM-13 (setting [2]) is 4.46% and 6.55% and 4.89%; in the series with MOLM-13 (setting [3]) it was 11.4% and 10.2% and 9.87%; with MOLM-13 (setting [4]) it was 23.3% and 19.7% and 17.2%; in the series on MOLM-13 (setting [5]), 23.9% and 24.2% and 20.6%; with MOLM-13 (setting [6]), 29.4% and 27.5% and 25.4%; in the series on MV4-11 (setting [9]), 5.32% and 4.14% and 5.2%. Moreover, the “Annexin-V (%)” value was 7.65% and 8.98% and 10.24% in the series on MV4-11 (setting [10]); 26.3% and 27.9% and 28.6% in the series on MV4-11 (setting [11]); 19.6% and 21.2% and 20.7% in the series with MV4-11 (setting [12]).
As to `COc1cc2nc(-c3ccc(C)o3)cc(NCC3CCN(c4ncc(C(=O)NO)cn4)CC3)c2cc1OC` [CM-444, 2-[4-[[[6,7-dimethoxy-2-(5-methyl-2-furyl)-4-quinolyl]amino]methyl]-1-piperidyl]pyrimidine-5-carbohydroxamic acid], the “CD11b (%)” value in the series with MOLM-13 (MOLM-13, 48 h) is 92.8%; in the series on MOLM-13 (setting [1]), 94.2% and 88.9% and 85.7%; in the series with MOLM-13 (setting [2]) it was 6.62% and 4.5% and 6.9%; with MOLM-13 (setting [3]), 63% and 58.9% and 57.2%; with MOLM-13 (setting [4]), 60% and 65.3% and 63.1%; with MOLM-13 (setting [5]), 66.7% and 70.8% and 65.2%. For the same compound, the “CD11b (%)” value in the series on MOLM-13 (setting [6]) is 68.9% and 75.7% and 73.6%; with MOLM-13 (setting [7]) it was 73.8% and 63.3% and 68.4%; with MV4-11 (MV4-11, 48 h), 58.9%; in the series on MV4-11 (setting [8]), 53.8% and 54.1% and 56.8%; in the series on MV4-11 (setting [9]) it was 11.1% and 6.62% and 5.25%; in the series on MV4-11 (setting [10]), 30.2% and 35.8% and 36.8%. Besides, the “CD11b (%)” value is 53.4% and 55% and 51.8% in the series on MV4-11 (setting [11]); 74.9% and 73.2% and 74.5% in the series with MV4-11 (setting [12]); 41.7% and 49.8% and 50.4% in the series on MV4-11 (setting [13]); 46.5% and 38.3% and 33.9% with NB-4; 69.4% and 75.8% and 60.6% in the series on MONO-MAC-6; 26.5% and 25.8% and 22.1% with GF-D8. The “CD11b (%)” value was 36.4% and 23.4% and 30.8% in the series on OCI-AML3; 99.1% and 93.5% and 92.1% with THP-1; 85.3% and 79.1% and 71.7% in the series with TF-1. Moreover, the “CD13 (%)” value in the series with MOLM-13 (MOLM-13, 48 h) is on record as 49.3%; with MV4-11 (MV4-11, 48 h), 98.0%. Besides, the “CD14 (%)” value with MOLM-13 (MOLM-13, 48 h) was 66.5%; with MV4-11 (MV4-11, 48 h) it was 57.6%. The “HLA-DR (%)” value in the series on MOLM-13 (MOLM-13, 48 h) came out at 35.1%; in the series with MV4-11 (MV4-11, 48 h), 42.1%. Moreover, the “Cell viability (%)” value is 70.2% and 63.7% and 70.7% in the series on MOLM-13 (setting [1]); 72.5% and 67.1% and 68% with MV4-11 (setting [8]). Also, the “differentiation level (CD11b)” value with MOLM-13 and in the series on MV4-11 was approximately 90% in each case. Further, the CD11b levels with MOLM-13 was 43.6 and 50.7 and 40.2; with MV4-11, 39.5 and 43.7 and 45.9. The “Annexin-V (%)” value was 4.46% and 6.55% and 4.89% in the series with MOLM-13 (setting [2]); 24.6% and 15.6% and 17.4% in the series with MOLM-13 (setting [3]); 66.7% and 40.3% and 35.6% in the series with MOLM-13 (setting [4]); 72.2% and 50.7% and 45.3% in the series on MOLM-13 (setting [5]); 68.1% and 55.1% and 49.2% with MOLM-13 (setting [6]); 5.32% and 4.14% and 5.2% in the series on MV4-11 (setting [9]). Also, the “Annexin-V (%)” value in the series on MV4-11 (setting [10]) was 28.1% and 26.8% and 25.7%; with MV4-11 (setting [11]) it was 38.5% and 41.2% and 41.8%; with MV4-11 (setting [12]), 79.6% and 81.2% and 80.7%.
Regarding `CC1=C(/C=C/C(C)=C/C=C/C(C)=C/C(=O)O)C(C)(C)CCC1` [ATRA, all-trans retinoic acid, reference compound], the “CD11b (%)” value with MOLM-13 (setting [7]) was 26.9% and 23.1% and 27.34%; with MV4-11 (setting [13]), 9.6% and 4.7% and 11.86%; in the series on NB-4, 89.2% and 76.4% and 74.85%; in the series with MONO-MAC-6 it was 10.8% and 15.4% and 11.3%; in the series with GF-D8, 5.2% and 12.5% and 12.9%; with OCI-AML3, 19.3% and 12.4% and 11.8%. Further, the “CD11b (%)” value was 48.6% and 40.2% and 38.7% in the series on THP-1; 36.7% and 30.4% and 33.4% with TF-1. The “differentiation (CD11b)” value in the series on NB-4 (NB-4, daily 25% GI50, 48 h) is reported as “induced differentiation”.
For `Cc1[nH]c2ccccc2c1CCNCc1ccc(/C=C/C(=O)NO)cc1` [Panobinostat, reference compound], the “CD11b (%)” value in the series with MOLM-13 (setting [1]) is 39.6% and 32.7% and 32.0%; with MV4-11 (setting [8]) it was 12.9% and 19.4% and 18.7%. In addition, the “Cell viability (%)” value with MOLM-13 (setting [1]) is 45.5% and 59.6% and 57.8%; with MV4-11 (setting [8]) it was 38.3% and 43.2% and 44.2%.
In the case of `O=C(CCCCCCC(=O)Nc1ccccc1)NO` [Vorinostat, reference compound], the “CD11b (%)” value was 37.1% and 43.8% and 41.2% in the series with MOLM-13 (setting [1]); 15.2% and 20.7% and 19.4% in the series on MV4-11 (setting [8]). The “Cell viability (%)” value with MOLM-13 (setting [1]) was 69.1% and 74.5% and 73.9%; with MV4-11 (setting [8]) it was 86.1% and 89% and 91%.
